Structures can show the parent of a compound that is named as a salt. A value given as a limit tells only on which side of the number the result lay.

Usually melting point stands for the temperature of the solid-liquid transition.

With `O=c1[nH]c2ccccc2cc1-c1csc(Nc2ccccn2)n1` (as salt: hydrobromid) [Example 67, 3-[2-(2-pyridylamino)-1,3-thiazol-4-yl]hydroquinolin-2-one], the melting point was 307 to 312 °C (dec.).
The value for `O=c1[nH]c2ccccc2cc1-c1nc(-c2ccncc2)cs1` (as salt: salt) [Example 111, 3-(4-Pyridin-4-yl-thiazol-2-yl)-1H-quinolin-2-one] was greater than 300 °C.
The value for `O=c1[nH]c2ccccc2c(-c2ccccc2)c1-c1csc(-c2ccncc2)n1` [Example 4, 3-[2-(4-Pyridyl)-4-thiazolyl]-4-phenyl-2(1H)-quinolinone] was greater than 250 °C; that for `O=C(Nc1nc(-c2cc3ccccc3[nH]c2=O)cs1)c1ccccc1` (as salt: HCl) [Example 71, N-[4-(2-Oxo(3-hydroquinolyl))(1,3-thiazol-2-yl)]benzamide] was 309 to 311 °C (dec.).
On to `Nc1c(-c2csc(-c3ccncc3)n2)c(=O)[nH]c2ccccc12` (as salt: salt) [Example 6, 3-[2-(4-Pyridyl)-4-thiazolyl]-4-amino-2(1H)-quinolinone], for which the melting point was greater than 250 °C.
The value for `Nc1c(-c2csc(-c3ccncc3)n2)c(=O)[nH]c2ccc(N3CCCCC3)cc12` [Example 7, 3-[2-(4-Pyridyl)-4-thiazolyl]-4-amino-6-(1-piperidinyl)-2(1H) -quinolinone] was 199 to 202 °C; that for `CCNC(=O)c1ccc2cc(-c3csc(N(C)S(=O)(=O)c4ccccc4)n3)c(=O)[nH]c2c1` [Example 8766, 3-[2-(Benzenesulfonyl-methyl-amino)-thiazol-4-yl]-2-oxo-1,2-dihydro-quinoline-7-carboxylic acid ethylamide] was greater than 300 °C; that for `COc1cccc(-c2csc(-c3cc4ccccc4[nH]c3=O)n2)c1` [Example 115, 3-[4-(3-Methoxyphenyl)-1,3-thiazol-2-yl]hydroquinolin-2-one] was 279 to 282 °C.
`COc1cc2[nH]c(=O)c(-c3csc(-c4ccncc4)n3)c(N)c2cc1OC` [Example 19, 3-[2-(4-pyridyl)-4-thiazolyl]-4-amino-6,7-dimethoxy-2(1H)-quinolinone] returned a melting point greater than 250 °C.
Regarding `COC(=O)c1cccc2[nH]c(=O)c(-c3csc(-c4ccncc4)n3)cc12` [Example 8, 1,2-Dihydro-2-oxo-3-[2-(4-pyridyl)-4-thiazolyl]-5-quinolinecarboxylic acid methyl ester], the melting point is greater than 250 °C.
For `COC(=O)c1ccc2cc(-c3csc(N(C)S(=O)(=O)c4ccccc4)n3)c(=O)[nH]c2c1` [Example 8763] the value was greater than 300 °C; for `Nc1c(-c2csc(-c3ccncc3)n2)c(=O)[nH]c2ccc(Cl)cc12` [Example 21, 3-[2-(4-Pyridyl)-4-thiazolyl]-4-amino-6-chloro-2(1H)-quinolinone], greater than 220 °C; for `O=c1[nH]c2ccccc2cc1-c1csc(NS(=O)(=O)c2ccc(OC(F)(F)F)cc2)n1` [Example 74, 3-[2-({[4-(Trifluoromethoxy)phenyl]sulfonyl}amino)-1,3-thiazol-4-yl]hydroquinolin-2-one], greater than 300 °C.
`Nc1nc(-c2c(-c3ccccc3)c3ccccc3[nH]c2=O)cs1` [Example 23, 3-(2-Amino-4-thiazolyl)-4-phenyl-2(1H)-quinolinone] yielded a melting point greater than 220 °C.
The value for `C=CCN(c1nc(-c2cc3ccccc3[nH]c2=O)cs1)S(=O)(=O)c1ccccc1` [Example 8729, N-Allyl-N-[4-(2-oxo-1,2-dihydro-quinolin-3-yl)-thiazol-2-yl]-benzenesulfonamide] was 214 to 216 °C.
As to `CN(c1nc(-c2cc3ccccc3[nH]c2=O)cs1)S(=O)(=O)c1cn(C)cn1` [Example 8732, N,1-Dimethyl-N-(4-(2-oxo-1,2-dihydro-3-quinolinyl)-1,3-thiazol-2-yl)-1H-imidazole-4-sulfonamide], the melting point is greater than 300 °C.
The value for `CCN(CC)C(=O)c1ccc2cc(-c3csc(N(C)S(=O)(=O)c4ccccc4)n3)c(=O)[nH]c2c1` [Example 8767, N,N-Diethyl-3-(2-(methyl(phenylsulfonyl)amino)-1,3-thiazol-4-yl)-2-oxo-1,2-dihydro-7-quinolinecarboxamide] was 200 to 202 °C; that for `O=c1[nH]c2ccccc2cc1-c1csc(NS(=O)(=O)c2ccccc2)n1` [Example 70, 3-{2-[(Phenylsulfonyl)amino]-1,3-thiazol-4-yl}hydroquinolin-2-one] was greater than 300 °C.
For `CN(c1nc(-c2cc3ccccc3[nH]c2=O)cs1)S(=O)(=O)c1ccc(Br)cc1` [Example 8730, 4-Bromo-N-methyl-N-[4-(2-oxo-1,2-dihydro-quinolin-3-yl)-thiazol-2-yl]-benzenesulfonamide] the value was 280 to 282 °C; for `N#Cc1ccc(-c2csc(-c3cc4ccccc4[nH]c3=O)n2)cc1` [Example 113, 4-[2-(2-Oxo-3-hydroquinolyl)-1,3-thiazol-4-yl]benzenecarbonitrile], greater than 300 °C.
The value for `O=c1[nH]c2ccccc2cc1-c1csc(NS(=O)(=O)c2ccc(Cl)cc2)n1` [Example 8789, 4-Chloro-N-(4-(2-oxo-1,2-dihydro-3-quinolinyl)-1,3-thiazol-2-yl)benzenesulfonamide] was greater than 300 °C; that for `O=c1[nH]c2ccccc2cc1-c1csc(NCCN2CCOCC2)n1` (as salt: hydrobromid) [Example 80, 3-{2-[(2-Morpholin-4-ylethyl)amino]-1,3-thiazol-4-yl}hydroquinolin-2-one hydrobromide] was 237 to 239 °C.
The compound `O=c1[nH]c2cc3c(cc2cc1-c1csc(-c2cccnc2)n1)OCO3` [Example 9, 3-[2-(3-Pyridyl)-4-thiazolyl]-6,7-(methylenedioxyl)-2(1H)-quinolinone] had a melting point greater than 220 °C.
For `Cc1c(-c2csc(-c3ccncc3)n2)c(=O)[nH]c2ccccc12` [Example 3, 3-[2-(4-Pyridyl)-4-thiazolyl]-4-methyl-2(1H)-quinolinone] the value was greater than 250 °C.
Compound `CN(c1nc(-c2cc3ccccc3[nH]c2=O)cs1)S(=O)(=O)c1cccc(F)c1` [Example 8731, 3-Fluoro-N-methyl-N-[4-(2-oxo-1,2-dihydro-quinolin-3-yl)-thiazol-2-yl]-benzenesulfonamide] yielded a melting point of 247 to 249 °C.
The value for `O=c1[nH]c2ccccc2cc1-c1csc(N(Cc2ccccc2)S(=O)(=O)c2ccccc2)n1` [Example 8728, N-Benzyl-N-[4-(2-oxo-1,2-dihydro-quinolin-3-yl)-thiazol-2-yl]-benzenesulfonamide] was 228 to 232 °C; that for `O=C(O)c1cccc2[nH]c(=O)c(-c3csc(-c4ccncc4)n3)cc12` [Example 10, 1,2-Dihydro-2-oxo-3-[2-(4-pyridyl)-4-thiazolyl]-5-quinolinecarboxylic acid] was greater than 250 °C; that for `O=c1[nH]c2ccccc2cc1-c1csc(-c2cccnc2)n1` [Example 2, 3-[2-(3-Pyridyl)-4-thiazolyl]-2(1H)-quinolinone] was 230 to 232 °C.
For `O=c1[nH]c2ccccc2cc1-c1csc(Nc2ccncc2)n1` (as salt: hydrobromid) [Example 69, 3-[2-(4-Pyridylamino)-1,3-thiazol-4-yl]hydroquinolin-2-one] the value was greater than 300 °C.

The values above are taken from patent US6822097B1, “Compounds and methods of uses” (Amgen, Inc., priority 2002, dated 2004).
